This passage reports IC50, Ki and EC50 results from BindingDB's records for doi:10.1016/j.bmc.2009.08.006 (Universitat de Barcelona, 2009).

SMILES strings stand for the structures. pEC50, pIC50, pKi: −log10 of the molar value.

In the assay the target is 5-hydroxytryptamine receptor 6 (Homo sapiens, UniProt P50406). Briefly: 5-HT6 Binding Assay. Particulars: pH 7.4; 37 °C. The protocol: The incubation was initiated by addition of membrane to reaction buffer contained radioligand in the presence of test compound. And the incubation time was 60 min at 37 deg C. After incubation, the membranes were collected onto polyethylenimine-pretreated glass fiber filters. Radioactivity was determined by scintillation counting. Nonspecific binding was determined with 100 uM serotonin. Competition binding data were analyzed by using the LIGAND program, and assays were performed in triplicate determinations for each point.
Chain of 5-hydroxytryptamine receptor 6 (P50406 whole entry): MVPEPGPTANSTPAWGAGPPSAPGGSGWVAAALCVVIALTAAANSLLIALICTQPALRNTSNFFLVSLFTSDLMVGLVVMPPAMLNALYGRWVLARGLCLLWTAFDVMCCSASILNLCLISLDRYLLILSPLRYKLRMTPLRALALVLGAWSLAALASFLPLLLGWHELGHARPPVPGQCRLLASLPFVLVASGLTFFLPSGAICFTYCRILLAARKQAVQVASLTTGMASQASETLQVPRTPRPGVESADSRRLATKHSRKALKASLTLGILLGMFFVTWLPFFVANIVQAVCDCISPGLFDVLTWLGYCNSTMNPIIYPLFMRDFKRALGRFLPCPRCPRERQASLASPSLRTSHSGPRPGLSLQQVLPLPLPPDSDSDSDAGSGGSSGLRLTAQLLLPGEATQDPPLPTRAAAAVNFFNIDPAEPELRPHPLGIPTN
As for `CC1=Cc2cc(NS(=O)(=O)c3c(Cl)nc4sccn34)ccc2C1` [indenylsulfonamide, 47+48], the pIC50 (in general, the negative decadic logarithm of the IC50, by convention in mol/L) was 5.52 and the pKi (usually the negative decadic logarithm of the Ki, by convention in mol/L) is 7.37. Take `CN1CCC(c2cn(S(=O)(=O)c3ccccc3Br)c3ccccc23)C1` (centres undefined): the pEC50 (commonly −log10 of the EC50, conventionally taken in molar units) is 7.27. In turn, `CN(C)Cc1cn(S(=O)(=O)c2ccccc2)c2ccccc12` gave a pEC50 of 6.06. Same read-out and setting: the same measure for `Cc1cn(S(=O)(=O)c2ccc(N)cc2)c2ccccc12` [4-(3-methyl-1H-indole-1-sulfonyl)aniline, 8]: 6.49; for `CN1CCC[C@H]1Cc1c[nH]c2ccc(NS(=O)(=O)c3ccc(C(F)(F)F)cc3)cc12` [pyrrolidinylindole, (S)-5b]: 7.67. Regarding `O=S(=O)(Nc1ccc2[nH]cc(C[C@H]3CCCN3)c2c1)c1ccccc1I` [(R)-5a], the pEC50 is 9.40 and the negative logarithm of the Ki (pKi) is 9.00. `CN(C)CCc1c[nH]c2ccc(NS(=O)(=O)c3ccc4c(Cl)cccc4c3)cc12`: the pEC50 was 9.54.
